Assay [1] has as its target T1, ALFY-FYVE (Homo sapiens, UniProt Q8IZQ1).
T1 sequence (Q8IZQ1 3428-3518): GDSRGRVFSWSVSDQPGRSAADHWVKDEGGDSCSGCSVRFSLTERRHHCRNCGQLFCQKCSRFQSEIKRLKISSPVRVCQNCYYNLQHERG
In words: 1H-15N HSQC NMR titration, chemical shift perturbation fit. The class given is binding.

The target of assay [2] is T2, ALFY-FYVE (Homo sapiens, UniProt Q8IZQ1, E3471K).
T2 sequence (Q8IZQ1 3428-3518 E3471K): T1 sequence (Q8IZQ1 3428-3518) with E44K
Described as above. The format is binding.

SMILES strings stand for the structures. Where a chain is given by its changes, count along the chain named.

As for `O=P(O)(O)O[C@@H]1[C@H](O)[C@H](OP(=O)(O)O)[C@@H](O)[C@H](O)[C@H]1O` [Ins(1,3)P2], the Kd lay in the range of 50.5 to 184 µM at ALFY-FYVE [1] and 82.8 to 270 µM on ALFY-FYVE [2].

These data come from paper PMC7902475 (Traffic (Copenhagen, Denmark), 2020).
